# Measurements: US20250213645A1, “PHARMACEUTICAL COMPOSITION FOR MODULATING IMMUNE RESPONSE” (L-BASE CO., LTD., priority 2021, published 2025)
# Where a SMILES comes first, the peptide text is derived from it. Where no end group is shown, it is not given here.
# Tests used:
# [1] = system: CT26 cancer cells in which CAGE expression was induced; assay: Anticancer efficacy of compound and anti-PD-1, alone or combined, in syngeneic mouse model; type: in vivo; details: for absolute weight of the tumor: tumor removed on day 15, compound 10 mpk i.v. every 2 days, anti-PD-1 10 mg/kg i.p. every 3 days; for tumor volume (tumor growth): vs control, compound 10 mpk intravenously every 2 days, anti-PD-1 10 mg/kg intraperitoneally every 3 days, up to day 15
# Procedure: (§1) CT26 cancer cells in which CAGE expression was induced were mixed with Matrigel in a ratio of 1:1, and 200 μL of the cell mixture was injected into a female BALB/c mouse at a concentration of 1×10^6 cells/mouse to produce a syngeneic mouse model. After cell inoculation was completed, when the volume of the formed tumor reached 70 to 120 mm^3, groups were randomly separated and drug administration was performed. A cancer immunotherapy drug (anti-PD-1) was intraperitoneally administered at intervals of 3 days at a concentration of 10 mg/kg (mpk), and the compounds according to the present invention, AQTGTGKT, 3-PhPh-AQTGTGKT, and naphthyl-AQTGTGKT, were administered intravenously at intervals of 2 days at a concentration of 10 mpk. The size of the tumor was measured twice a week to calculate a tumor volume, and the weight of a subject was also measured. On day 15 after the start of administration, the tumor was removed, and the absolute weight was measured.
# [2] = system: CT26 cancer cells in which CAGE expression was induced; assay: Anticancer efficacy of 3-PhPh-AQTGTGKT and anti-CTLA4, alone or combined, in syngeneic mouse model; type: in vivo; details: 3-PhPh-AQTGTGKT 10 mpk i.v. every 2 days, anti-CTLA4 5 mpk i.p. every 3 days
# Procedure: as §1, with “(anti-CTLA4)” for “(anti-PD-1)”, “5 mpk,” for “10 mg/kg (mpk),”, “compound of” for “compounds according to”, “invention (3-PhPh-AQTGTGKT) was intravenously” for “invention, AQTGTGKT, 3-PhPh-AQTGTGKT, and naphthyl-AQTGTGKT, were”, “administered” for “administered intravenously”
# CXCL10 = CXCL10 mRNA expression in tumor tissue by real-time PCR; type: in vivo, mouse; details: relative to control, 2^-ΔΔCt method; FIG. 12
# Procedure: After administering the cancer immunotherapy drug and the compound of the present invention alone or in combination to a syngeneic mouse model produced using CT26 cells in which CAGE expression was induced, tumor tissue was isolated from each subject. RNA was extracted from the obtained tumor tissue, cDNA was synthesized, and then an mRNA expression level of the CXCL10 gene was measured through real-time PCR. For each mRNA, a relative expression level compared to the control was calculated through the 2^−ΔΔ^Ct method.
# [3] = system: CT26 cells in which CAGE expression was induced; assay: Histological analysis of tumor tissue by H&E staining; type: in vivo, mouse; details: single or combined administration; FIG. 11A
# Procedure: (§2) After administering the cancer immunotherapy drug and the compound of the present invention alone or in combination to a syngeneic mouse model produced using CT26 cells in which CAGE expression was induced, tumor tissue was isolated from each subject. The obtained tumor tissue was made into a paraffin block and then sectioned, and histological analysis was performed by performing H&E staining and microscopic observation on tissue slides. […] Fluorescent images were taken at 20× magnification using a confocal microscope, and the number of T cells and macrophages (M2- and M1-type macrophages) on the entire screen was then measured and analyzed.
# T cells or macrophages = type: in vivo, mouse
# Procedure: as §2
# [4] = system: CT26 cancer cells in which CAGE expression was induced; assay: Overall survival (OS) period, Kaplan Meier analysis, syngeneic mouse model; type: in vivo; details: for 39 days, 3-PhPh-AQTGTGKT 10 mpk i.v. every 2 days, anti-CTLA4 5 mpk, anti-PD-1 10 mpk every 3 days
# Procedure: Next, an overall survival (OS) period according to the single or combined administration of the compound of the present invention and the cancer immunotherapy drug was compared. CT26 cancer cells in which CAGE expression was induced were mixed with Matrigel in a ratio of 1:1, and 200 μL of the cell mixture was injected into a female BALB/c mouse at a concentration of 1×10^6 cells/mouse to produce a syngeneic mouse model. After cell inoculation was completed, when the volume of the formed tumor reached 70 to 120 mm^3, groups were randomly separated and drug administration was performed. The cancer immunotherapy drug (anti-CTLA4) was administered at intervals of 3 days at a concentration of 5 mpk, and the compound of the present invention (3-PhPh-AQTGTGKT) was intravenously administered at intervals of 2 days at a concentration of 10 mpk, and the survival rate of the subjects was analyzed using Kaplan Meier analysis.
# Subsequently, the effect of the coadministration of the compound of the present invention and a different cancer immunotherapy drug on the survival rate of subjects was confirmed. CT26 cancer cells in which CAGE expression was induced were mixed with Matrigel in a ratio of 1:1, and 200 μL of the cell mixture was injected into a female BALB/c mouse at a concentration of 1×10^6 cells/mouse to produce a syngeneic mouse model. […]
Compound,absolute weight of the tumor [1],tumor volume (tumor growth) [1],tumor growth (tumor volume) ([2]; from day 11),absolute weight of the tumor ([2]; tumor removed on day 15),CXCL10 mRNA expression level in tumor tissue (CXCL10),tumor cell death in tumor tissue (H&E staining) [3],frequency of M2 macrophages (CD206) in tumor tissue (T cells or macrophages; FIG. 11C),frequency of total macrophages (F4/80) in tumor tissue (T cells or macrophages; FIG. 11C),"frequency of cytotoxic T cells (CD8 T cells) in tumor tissue (T cells or macrophages; mouse, in vivo)","frequency of total T cells (CD4 T cells) in tumor tissue (T cells or macrophages; vs control or single administration groups, FIG. 11B)","subjects survived ([4]; of 10 subjects, control 2 survived)",subjects died ([4]; control 8 died)
"C[C@H](NC(=O)c1ccc2ccccc2c1)C(=O)N[C@@H](CCC(N)=O)C(=O)N[C@H](C(=O)NCC(=O)N[C@H](C(=O)NCC(=O)N[C@@H](CCCCN)C(=O)N[C@H](C(=O)O)[C@@H](C)O)[C@@H](C)O)[C@@H](C)O [naphthyl-AQTGTGKT, Naphthyl-AQTGTGKT] (HELM PEPTIDE1{[O=C(c1ccc2ccccc2c1)[*:2]].A.Q.T.G.T.G.K.T}$$$$V2.0)",no significant difference between the tumor weight,no significant difference in tumor volume,,,,,,,,,,
AQTGTGKT [AQTGTGKT],no significant difference between the tumor weight,no significant difference in tumor volume,,,,,,,,,,
C[C@H](NC(=O)c1cccc(-c2ccccc2)c1)C(=O)N[C@@H](CCC(N)=O)C(=O)N[C@H](C(=O)NCC(=O)N[C@H](C(=O)NCC(=O)N[C@@H](CCCCN)C(=O)N[C@H](C(=O)O)[C@@H](C)O)[C@@H](C)O)[C@@H](C)O [3-PhPh-AQTGTGKT] (HELM PEPTIDE1{[O=C(c1cccc(-c2ccccc2)c1)[*:2]].A.Q.T.G.T.G.K.T}$$$$V2.0),lower than that of the control,tumor growth began to decrease compared to the control,statistically significant decrease in tumor growth,lower than that of the control,similar,some areas where tumor cells were killed were observed,no significant difference between the frequencies of macrophages,no significant difference between the frequencies of macrophages,no significant differences in the frequency of immune cells,no significant differences in the frequency of immune cells,3,7 out of 10 subjects
